Measured values published in ChEMBL document CHEMBL4390699, “Design, synthesis and biological evaluation of novel antitumor spirodihydrothiopyran-oxindole derivatives” (Bioorg Med Chem Lett, 2019).
pIC50, pKi: −log10 of the molar value.

Tests used:
HCT-116 [1] = test: Antiproliferative activity against human HCT116 cells assessed as inhibition of cell growth at 10 uM measured after 24 hrs by CCK8 assay relative to control; format: functional; details: HCT-116, 24 h, read-out: GI
HCT-116 [2] = test: Antiproliferative activity against human HCT116 cells measured after 24 hrs by CCK8 assay; format: functional, cell-based; details: HCT-116, 24 h
A549 [3] = test: Antiproliferative activity against human A549 cells assessed as inhibition of cell growth at 10 uM measured after 24 hrs by CCK8 assay relative to control; format: functional; details: A549, 24 h, read-out: GI
A549 [4] = test: Antiproliferative activity against human A549 cells measured after 24 hrs by CCK8 assay; format: functional, cell-based; details: A549, 24 h
MCF7 [5] = test: Antiproliferative activity against human MCF7 cells assessed as inhibition of cell growth at 10 uM measured after 24 hrs by CCK8 assay relative to control; format: functional; details: MCF7, 24 h, read-out: GI
MCF7 [6] = test: Antiproliferative activity against human MCF7 cells measured after 24 hrs by CCK8 assay; format: functional, cell-based; details: MCF7, 24 h
[7] = biological target: E3 ubiquitin-protein ligase Mdm2 (Homo sapiens, UniProt Q00987); test: Inhibition of PMDM6-F probe binding to MDM2 (1 to 118 residues) (unknown origin) preincubated for 30 mins followed by PMDM6-F addition and measured after 1 hr fluorescence polarization assay
A549 [8] = test: Cell cycle arrest in human A549 cells assessed as decrease in accumulation at S-phase measured after 24 hrs by DNA-staining solution based flow cytometry; format: functional
A549 [9] = test: Cell cycle arrest in human A549 cells assessed as decrease in accumulation at G2/M-phase measured after 24 hrs by DNA-staining solution based flow cytometry; format: functional
A549 [10] = test: Cell cycle arrest in human A549 cells assessed as increase in accumulation at G0/G1-phase measured after 24 hrs by DNA-staining solution based flow cytometry; format: functional
HUVEC = test: Cytotoxicity against HUVEC measured after 24 hrs by CCK8 assay; format: cell-based; details: Homo sapiens
A549 [11] = test: cells; details: Homo sapiens, A549, 48 h, read-out: Activity
Description: Induction of apoptosis in human A549 cells assessed as viable cells at 10 uM measured after 48 hrs by annexin V-FITC/propidium iodide staining based flow cytometry (Rvb = 92.9%)

A549 [12] = test: cells; details: Homo sapiens, A549, 48 h, read-out: Activity; remark: listed apart in the source
Description: Induction of apoptosis in human A549 cells assessed as viable cells at 5 uM measured after 48 hrs by annexin V-FITC/propidium iodide staining based flow cytometry (Rvb = 92.9%)

Chain of E3 ubiquitin-protein ligase Mdm2 (Q00987 whole entry, the tested form may be a part): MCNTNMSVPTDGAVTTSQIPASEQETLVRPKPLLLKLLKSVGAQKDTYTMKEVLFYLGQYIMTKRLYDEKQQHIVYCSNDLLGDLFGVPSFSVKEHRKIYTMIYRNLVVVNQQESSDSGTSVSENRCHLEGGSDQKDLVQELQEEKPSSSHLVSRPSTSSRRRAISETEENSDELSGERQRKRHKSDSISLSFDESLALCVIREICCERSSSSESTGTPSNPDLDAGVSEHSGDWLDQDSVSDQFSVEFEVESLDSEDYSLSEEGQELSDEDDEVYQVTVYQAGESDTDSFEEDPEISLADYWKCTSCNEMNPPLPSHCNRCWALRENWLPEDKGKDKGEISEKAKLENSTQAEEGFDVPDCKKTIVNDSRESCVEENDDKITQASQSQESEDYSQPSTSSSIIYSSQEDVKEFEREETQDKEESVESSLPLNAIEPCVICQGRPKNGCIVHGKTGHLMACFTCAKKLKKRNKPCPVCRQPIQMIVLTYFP

SMILES | inhibition of growth at 10 µM (HCT-116 [1]) [%] | pIC50 (HCT-116 [2]) | inhibition of growth at 10 µM (A549 [3]) [%] | pIC50 (A549 [4]) | inhibition of growth at 10 µM (MCF7 [5]) [%] | pIC50 (MCF7 [6]) | pKi [7] | Activity (A549 [8]) | Activity (A549 [9]) | Activity (A549 [10]) | pIC50 (HUVEC) | viability at 10 µM (A549 [11]) [%] | viability at 5 µM (A549 [12]) [%]
COc1ccc(C(=O)C2=CC[C@@H](c3ccccc3)[C@@]3(S2)C(=O)Nc2cccc(Br)c23)cc1 | 68.4 | 5.08 | 74.3 | 5.22 | 36.9 | – | – | – | – | – | – | – | –
O=C(C1=CC[C@@H](c2ccccc2)[C@@]2(S1)C(=O)Nc1cccc(Cl)c12)c1ccccc1 | 48.8 | 5.00 | 65.4 | 5.00 | 43.9 | – | – | – | – | – | – | – | –
O=C(C1=CC[C@@H](c2ccccc2)[C@@]2(S1)C(=O)Nc1ccc(F)cc12)c1ccccc1 | 88.4 | 5.00 | 74.2 | 5.37 | 63.9 | 5.26 | – | – | – | – | – | – | –
O=C(C1=CC[C@@H](c2ccccc2)[C@@]2(S1)C(=O)Nc1cccc(Br)c12)c1ccco1 | 92.1 | 5.72 | 87.1 | 5.35 | 92.8 | 5.32 | 4.36 | – | – | – | – | – | –
CC[C@@H]1CC=C(C(=O)c2ccc(OC)cc2)S[C@@]12C(=O)Nc1cccc(Br)c12 | 70.8 | – | 46.9 | 4.99 | 72.9 | 4.88 | – | – | – | – | – | – | –
O=C(C1=CC[C@@H](c2ccccc2)[C@@]2(S1)C(=O)Nc1cccc(Br)c12)c1ccc(Br)cc1 | 67.3 | 5.59 | 93.1 | 5.48 | 77.7 | 5.09 | – | – | – | – | – | – | –
O=C(C1=CC[C@@H](c2ccc(Br)cc2)[C@@]2(S1)C(=O)Nc1cccc(Br)c12)c1ccccc1 | 86 | 5.23 | 88.1 | 5.82 | 52.7 | 5.06 | – | – | – | – | – | – | –
O=C(C1=CC[C@@H](c2ccccc2)[C@@]2(S1)C(=O)Nc1ccccc12)c1ccccc1 | 87.6 | 5.03 | 57.6 | 5.20 | 51.7 | 4.97 | – | – | – | – | – | – | –
O=C(C1=CC[C@@H](c2ccc(Br)cc2)[C@@]2(S1)C(=O)Nc1ccccc12)c1ccccc1 | 91.9 | 5.77 | 75.1 | 5.68 | 69.4 | 5.17 | 4.70 | Dose-dependent effect | Dose-dependent effect | Dose-dependent effect | 5.39 | 29 | 35.7
CCC[C@@H]1CC=C(C(=O)c2ccc(OC)cc2)S[C@@]12C(=O)Nc1cccc(Br)c12 | 22.7 | – | 44 | – | 19.8 | – | – | – | – | – | – | – | –
O=C(C1=CC[C@@H](c2ccc(Cl)cc2)[C@@]2(S1)C(=O)Nc1ccccc12)c1ccccc1 | 89.1 | 5.55 | 72.5 | 5.41 | 72.5 | 5.07 | – | – | – | – | – | – | –
O=C(C1=CC[C@@H](c2ccc(F)cc2)[C@@]2(S1)C(=O)Nc1ccccc12)c1ccccc1 | 91.1 | 5.70 | 72.3 | 5.20 | 58.8 | 4.85 | – | – | – | – | – | – | –
COc1ccc(C2=N[C@H](c3ccc(Cl)cc3)[C@H](c3ccc(Cl)cc3)N2C(=O)N2CCNC(=O)C2)c(OC(C)C)c1 | 64.4 | – | 47 | 5.62 | 32.8 | 4.92 | – | Dose-dependent effect | – | Dose-dependent effect | – | 44.1 | 45.9
O=C(C1=CC[C@@H](c2ccccc2)[C@@]2(S1)C(=O)Nc1cc(Br)ccc12)c1ccccc1 | 80 | 5.02 | 67.6 | 5.32 | 54.5 | 5.00 | – | – | – | – | – | – | –
O=C(C1=CC[C@@H](c2ccccc2)[C@@]2(S1)C(=O)Nc1cc(F)ccc12)c1ccccc1 | 45.1 | – | 66 | 5.21 | 23.9 | – | – | – | – | – | – | – | –
COc1ccc(C(=O)C2=CC[C@@H](c3ccc(OC)cc3)[C@@]3(S2)C(=O)Nc2cccc(Br)c23)cc1 | 14.3 | – | 40.9 | – | 25.9 | – | – | – | – | – | – | – | –
COc1ccc(C(=O)C2=CC[C@@H](c3ccc([N+](=O)[O-])cc3)[C@@]3(S2)C(=O)Nc2cccc(Br)c23)cc1 | 48.1 | – | 73.9 | 4.86 | 28.1 | – | – | – | – | – | – | – | –
O=C(C1=CC[C@@H](c2ccc(F)cc2)[C@@]2(S1)C(=O)Nc1cccc(Br)c12)c1ccccc1 | 44.1 | – | 84.4 | 5.31 | 21.9 | – | – | – | – | – | – | – | –
O=C(C1=CC[C@@H](c2ccccc2)[C@@]2(S1)C(=O)Nc1cccc(Br)c12)c1ccccc1 | 45 | – | 78.5 | 5.51 | 24.3 | – | – | – | – | – | – | – | –
COc1ccc(C(=O)C2=CC[C@@H](c3ccc(Br)cc3)[C@@]3(S2)C(=O)Nc2cccc(Br)c23)cc1 | 10.8 | – | 19 | – | 18.5 | – | – | – | – | – | – | – | –
